The supplement of paper PMC10307832

Legend:
Experiment in all cases: relative viability (nuclei count vs DMSO), 5 days (fraction); higher = more cells survive
LOU-NH91 = tested on: LOU-NH91
Method in brief: (§1)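 Relative viability divides the nuclei count in treated wells by that in vehicle wells. Lung cancer cell lines were seeded in 1536-well plates, dosed by pin tool the next day, and fixed and stained after 5 days in one step with final 0.05% Triton X-100, 1% formaldehyde and 1 ug/ml Hoechst. Dosing was a single drug or a fixed anchor-drug dose plus five library-drug doses (not always all listed) in √10 steps, and values are medians of duplicate plates imaged at 4×.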

201T = tested on: 201T
Method in brief: as §1

LK-2 = tested on: LK-2
Method in brief: as §1

PC-3 [JPC-3] = tested on: PC-3 [JPC-3]
Method in brief: as §1

COR-L23 = tested on: COR-L23
Method in brief: as §1

NCI-H23 = tested on: NCI-H23
Method in brief: as §1

NCI-H1793 = tested on: NCI-H1793
Method in brief: as §1

LCLC-97TM1 = tested on: LCLC-97TM1
Method in brief: as §1

NCI-H1651 = tested on: NCI-H1651
Method in brief: as §1

UMC-11 = tested on: UMC-11
Method in brief: as §1

NCI-H838 = tested on: NCI-H838
Method in brief: as §1

NCI-H2347 = tested on: NCI-H2347
Method in brief: as §1

HARA = tested on: HARA
Method in brief: as §1

RERF-LC-KJ = tested on: RERF-LC-KJ
Method in brief: as §1

NCI-H520 = tested on: NCI-H520
Method in brief: as §1

NCI-H647 = tested on: NCI-H647
Method in brief: as §1

NCI-H2405 = tested on: NCI-H2405
Method in brief: as §1

LXF-289 = tested on: LXF-289
Method in brief: as §1

HCC-78 = tested on: HCC-78
Method in brief: as §1

A-427 = tested on: A-427
Method in brief: as §1

NCI-H1650 = tested on: NCI-H1650
Method in brief: as §1

Cc1csc(=NC2CCCCC2)n1/N=C/c1ccc(O)c(O)c1O [MIM1] + CS(=O)(=O)CCNCc1ccc(-c2ccc3ncnc(Nc4ccc(OCc5cccc(F)c5)c(Cl)c4)c3c2)o1 [Lapatinib] (partner 2 µM)
relative viability (LOU-NH91; first compound 0.2 µM): 0.744
relative viability (LOU-NH91; first compound 0.6325 µM): 0.8
relative viability (LOU-NH91; first compound 2 µM): 0.645
relative viability (LOU-NH91; first compound 6.325 µM): 0.625
relative viability (LOU-NH91; first compound 20 µM): 0.362
relative viability (201T; first compound 0.2 µM): 1.08
relative viability (201T; first compound 0.6325 µM): 1.05
relative viability (201T; first compound 2 µM): 1.01
relative viability (201T; first compound 6.325 µM): 0.49
relative viability (201T; first compound 20 µM): 0.617
relative viability (LK-2; first compound 0.2 µM): 0.911
relative viability (LK-2; first compound 0.6325 µM): 0.881
relative viability (LK-2; first compound 2 µM): 0.697
relative viability (LK-2; first compound 6.325 µM): 0.835
relative viability (LK-2; first compound 20 µM): 0.268
relative viability (PC-3 [JPC-3]; first compound 0.2 µM): 0.486
relative viability (PC-3 [JPC-3]; first compound 0.6325 µM): 0.505
relative viability (PC-3 [JPC-3]; first compound 2 µM): 0.424
relative viability (PC-3 [JPC-3]; first compound 6.325 µM): 0.45
relative viability (PC-3 [JPC-3]; first compound 20 µM): 0.46
relative viability (COR-L23; first compound 0.2 µM): 0.931
relative viability (COR-L23; first compound 0.6325 µM): 1.07
relative viability (COR-L23; first compound 2 µM): 0.844
relative viability (COR-L23; first compound 6.325 µM): 0.619
relative viability (COR-L23; first compound 20 µM): 0.286
relative viability (NCI-H23; first compound 0.2 µM): 1.13
relative viability (NCI-H23; first compound 2 µM): 0.734
relative viability (NCI-H23; first compound 6.325 µM): 0.88
relative viability (NCI-H23; first compound 20 µM): 0.177
relative viability (NCI-H1793; first compound 0.2 µM): 0.768
relative viability (NCI-H1793; first compound 0.6325 µM): 0.623
relative viability (NCI-H1793; first compound 2 µM): 0.645
relative viability (NCI-H1793; first compound 6.325 µM): 0.669
relative viability (NCI-H1793; first compound 20 µM): 0.459
relative viability (LCLC-97TM1; first compound 0.2 µM): 1.04
relative viability (LCLC-97TM1; first compound 0.6325 µM): 0.526
relative viability (LCLC-97TM1; first compound 2 µM): 0.539
relative viability (LCLC-97TM1; first compound 6.325 µM): 0.353
relative viability (LCLC-97TM1; first compound 20 µM): 0.128
relative viability (NCI-H1651; first compound 0.2 µM): 0.883
relative viability (NCI-H1651; first compound 0.6325 µM): 0.854
relative viability (NCI-H1651; first compound 2 µM): 0.95
relative viability (NCI-H1651; first compound 6.325 µM): 0.655
relative viability (NCI-H1651; first compound 20 µM): 0.274
relative viability (UMC-11; first compound 0.2 µM): 1.22
relative viability (UMC-11; first compound 2 µM): 1.17
relative viability (UMC-11; first compound 6.325 µM): 0.664
relative viability (UMC-11; first compound 20 µM): 0.181
relative viability (NCI-H838; first compound 0.2 µM): 0.941
relative viability (NCI-H838; first compound 0.6325 µM): 0.885
relative viability (NCI-H838; first compound 2 µM): 0.815
relative viability (NCI-H838; first compound 6.325 µM): 0.672
relative viability (NCI-H838; first compound 20 µM): 0.183
relative viability (NCI-H2347; first compound 0.2 µM): 0.941
relative viability (NCI-H2347; first compound 0.6325 µM): 1.07
relative viability (NCI-H2347; first compound 2 µM): 0.999
relative viability (NCI-H2347; first compound 6.325 µM): 0.59
relative viability (NCI-H2347; first compound 20 µM): 0.399
relative viability (HARA; first compound 0.2 µM): 0.615
relative viability (HARA; first compound 0.6325 µM): 0.662
relative viability (HARA; first compound 2 µM): 0.821
relative viability (HARA; first compound 6.325 µM): 0.55
relative viability (HARA; first compound 20 µM): 0.128
relative viability (RERF-LC-KJ; first compound 0.2 µM): 0.769
relative viability (RERF-LC-KJ; first compound 0.6325 µM): 0.772
relative viability (RERF-LC-KJ; first compound 2 µM): 0.795
relative viability (RERF-LC-KJ; first compound 6.325 µM): 0.75
relative viability (RERF-LC-KJ; first compound 20 µM): 0.3
relative viability (NCI-H520; first compound 0.2 µM): 0.823
relative viability (NCI-H520; first compound 0.6325 µM): 0.691
relative viability (NCI-H520; first compound 2 µM): 0.924
relative viability (NCI-H520; first compound 6.325 µM): 0.691
relative viability (NCI-H520; first compound 20 µM): 0.269
relative viability (NCI-H647; first compound 0.2 µM): 1.03
relative viability (NCI-H647; first compound 0.6325 µM): 1.04
relative viability (NCI-H647; first compound 2 µM): 1.02
relative viability (NCI-H647; first compound 6.325 µM): 0.633
relative viability (NCI-H647; first compound 20 µM): 0.104
relative viability (NCI-H2405; first compound 0.2 µM): 1.13
relative viability (NCI-H2405; first compound 0.6325 µM): 1.09
relative viability (NCI-H2405; first compound 2 µM): 1.12
relative viability (NCI-H2405; first compound 6.325 µM): 0.854
relative viability (NCI-H2405; first compound 20 µM): 0.606
relative viability (LXF-289; first compound 0.2 µM): 0.868
relative viability (LXF-289; first compound 0.6325 µM): 0.802
relative viability (LXF-289; first compound 2 µM): 0.895
relative viability (LXF-289; first compound 6.325 µM): 0.664
relative viability (LXF-289; first compound 20 µM): 0.592
relative viability (HCC-78; first compound 0.2 µM): 0.834
relative viability (HCC-78; first compound 0.6325 µM): 0.964
relative viability (HCC-78; first compound 2 µM): 0.637
relative viability (HCC-78; first compound 6.325 µM): 0.492
relative viability (HCC-78; first compound 20 µM): 0.336
relative viability (A-427; first compound 0.2 µM): 1.05
relative viability (A-427; first compound 0.6325 µM): 1.05
relative viability (A-427; first compound 2 µM): 0.868
relative viability (A-427; first compound 6.325 µM): 0.841
relative viability (A-427; first compound 20 µM): 0.265
relative viability (NCI-H1650; first compound 0.2 µM): 0.788
relative viability (NCI-H1650; first compound 0.6325 µM): 0.566
relative viability (NCI-H1650; first compound 2 µM): 0.565
relative viability (NCI-H1650; first compound 6.325 µM): 0.204
relative viability (NCI-H1650; first compound 20 µM): 0.148
